Values quoted from earlier work in publication PMC2748991 (Planta medica, 2009).

What was measured:
elastase = settings: ref [3],[4]
trypsin = settings: ref [5]

Substance	elastase inhibition (in words) (elastase)	trypsin inhibition (in words) (trypsin)
lyngbyastatin 6	potent inhibitors	
lyngbyastatin 5	potent inhibitors	
pompanopeptin A		trypsin inhibitor
